The record followed here is patent US10251874B2, “Crystalline forms of a JAK inhibitor compound” (THERAVANCE BIOPHARMA R&D IP, LLC, priority 2017, dated 2019).

Holding throughout (type): cell-based
For assay [1], the system named is IL-13 induced STAT6 phosphorylation in BEAS-2B human lung epithelial cells. Nature of the assay: Assay 2: Cellular JAK potency assay: inhibition of IL-13 (AlphaScreen). Conditions: BEAS-2B cells, read-out: pIC50, inhibition of IL-13 induced STAT6 phosphorylation (converted). The protocol:
The AlphaScreen JAM cellular potency assay was carried out by measuring interleukin-13 (IL-13, R&D Systems) induced STAT6 phosphorylation in BEAS-2B human lung epithelial cells (ATCC). The anti-STAT6 antibody (Cell Signaling Technologies) was conjugated to AlphaScreen acceptor beads (Perkin Elmer), while the anti-pSTAT6 (pTyr641) antibody (Cell Signaling Technologies) was biotinylated using EZ-Link Sulfo-NHS-Biotin (Thermo Scientific).
BEAS-2B cells were grown at 37° C. in a 5% CO2 humidified incubator in 50% DMEM/50% F-12 medium (Life Technologies) supplemented with 10% FBS (Hyclone), 100 U/mL penicillin, 100 μg/mL streptomycin (Life Technologies), and 2 mM
GlutaMAX (Life Technologies). On day 1 of the assay, cells were seeded at a 7,500 cells/well density in white poly-D-lysine-coated 384-well plates (Corning) with 25 μL medium, and were allowed to adhere overnight in the incubator. […] After a minimum of 2 h incubation, the assay plates were read on the EnVision plate reader. AlphaScreen luminescence signals were recorded and utilized to calculate the percent inhibition values based on DMSO and background controls.
For dose-response analysis, percent inhibition data were plotted vs. compound concentrations, and IC50 values were determined from a 4-parameter robust fit model with the Prism software. Results may also be expressed as the negative logarithm of the IC50 value, pIC50.

For assay [2], the system named is IL-2 stimulated pSTAT5 in CD4+ T cells. In words: Assay 4: Inhibition of IL-2 stimulated pSTAT5 in CD4+ T cells. Conditions: CD4+ T cells in human PBMCs, flow cytometry; read-out: pIC50, inhibition of IL-2 stimulated pSTAT5 (converted). The protocol: The potency of the test compound for inhibition of interleukin-2 (IL-2)/anti-CD3 stimulated STATS phosphorylation was measured in CD4-positive (CD4+) T cells in human peripheral blood mononuclear cells (PBMCs) isolated from human whole blood (Stanford Blood Center) using flow cytometry. Because IL-2 signals through JAK, this assay provides a measure of JAK cellular potency.
CD4+T cells were identified using a […] (PE) conjugated anti-CD4 antibody (Clone RPA-T4, BD Biosciences), while an Alexa Fluor 647 conjugated anti-pSTAT5 antibody (pY694, Clone 47, BD Biosciences) was used to detect STATS phosphorylation.
(1) The protocol of Assay 3 paragraph (1) was followed with the exception that the cytokine stimulation with anti-CD3 was performed for 30 min instead of 24 h. […] After incubation, cells were washed twice in FACS buffer before being analyzed using a LSRII flow cytometer (BD Biosciences). To determine the inhibitory potency of the test compound in response to IL-^2/anti-CD3, the median fluorescent intensity (MFI) of pSTAT5 was measured in CD4+ T cells. IC50 values were determined from analysis of the inhibition curves of MFI vs compound concentration. Data are expressed as pIC50 (negative decadic logarithm IC50) values.

Assay [3] concerns IFNγ induced CXCL9 secretion in EpiAirway tissue cultures. Nature of the assay: Assay 15: IFNγ induced CXCL9 in human 3D airway cultures. Conditions: 192 h, Day 8, average from 3 or 4 donors, read-out: % inhibition of IFNγ induced CXCL9 secretion (±STDV). The protocol: EpiAirway tissue cultures were obtained from Mattek (AIR-100). Cultures were derived from asthmatic donors. In a cell culture insert, human derived tracheal/bronchial epithelial cells were grown and differentiated on a porous membrane support, allowing an air-liquid interface with warmed culture medium below the cells and a gaseous test atmosphere above. Tissues were cultured in maintenance media (Mattek, AIR-100-MM) in a 37° C., 5% CO2 humidified incubator. Four donors were tested. On Day 0, tissue cultures were treated with test compounds at 10 μM, 1 μM and/or 0.1 μM. Compounds were diluted in dimethyl sulfoxide (DMSO, Sigma) to a final concentration of 0.1%. DMSO at 0.1% was used as a vehicle control. Test compounds were incubated with cultures for 1 hour at 37° C., 5% CO2, followed by the addition of pre-warmed media containing IFNγ (R&D Systems) or IL-27 (R&D Systems) at a final concentration at 100 ng/ml. Tissue cultures were maintained for 8 days. Media was replaced every 2 days with fresh media containing compounds and IFNγ or IL-27. On Day 8, tissue cultures and supernatants were collected for analysis. Supernatant samples were assayed for CXCL10 (IP-10) and CXCL9 (MIG) using luminex analysis (EMD Millipore). Data is expressed as % Inhibition +/−standard deviation (±STDV). Percent inhibition was determined by compound inhibitory potency against IFNγ or IL-27 induced CXCL10 or CXCL9 secretion compared to vehicle treated cells. Data is the average from 3 or 4 donors. Compound 1 was able to inhibit IFNγ induced CXCL10 secretion by 99%±2.0 (at 10 μM), 71%±19 (at […]) and 17%±12 (at 0.1 μM) when compared to vehicle control. Compound 1 was able to inhibit IFNγ induced CXCL9 secretion by 100%±0.3 (at 10 μM), 99%±0.9 (at 1 μM) and 74%±17 (at 0.1 μM) when compared to vehicle. […] Compound 1 was able to inhibit IL-27 induced CXCL9 secretion by 100%±0 (at 10 μM), 95%±3.7 (at 1 μM) and 75%±3.5 (at 0.1 μM) when compared to vehicle control.

With `CCc1cc(O)c(F)cc1-c1ccc2c(-c3nc4c([nH]3)CCN(C3CCN(C)CC3)C4)n[nH]c2c1` [Compound 1, 5-ethyl-2-fluoro-4-(3-(5-(1-methylpiperidin-4-yl)-4,5,6,7-tetrahydro-1H-imidazo[4,5-c]pyridin-2-yl)-1H-indazol-6-yl)phenol], the IC50 is 6.31 nM in assay [1] and around 20 nM in assay [2]. Moreover, in assay [3] (at 0.1 μM), the inhibition at 0.1 µM was determined as 74%. Also, the inhibition at 1 µM in assay [3] (at 1 μM) was 99%. For the same compound, the inhibition at 10 µM in assay [3] (at 10 μM) was found to be 100%.
